Reference: ChEMBL document CHEMBL5344411, “Phenotypic screening-based drug discovery of furan-2-carboxylic acid derivatives for the amelioration of type 2 diabetes mellitus (T2DM)” (Eur J Med Chem, 2023)
Calls of active or inactive are those of the source. The calls are words filed in the database; no cut-off is given here.

Experiments:
Hepatocyte [1] = assay: Inhibition of gluconeogenesis in Sprague-Dawley rat hepatocytes at 10 uM incubated for 1.5 hrs followed by sodium pyruvate and sodium lactate addition and measured after 4 hrs by colorimetric analysis relative to control; format: functional; conditions: time 5.5 hrs
Hepatocyte [2] = assay: Inhibition of gluconeogenesis in Sprague-Dawley rat hepatocytes at 0.3 uM incubated for 1.5 hrs followed by sodium pyruvate and sodium lactate addition and measured after 4 hrs by colorimetric analysis relative to control; format: functional; conditions: time 5.5 hrs
Hepatocyte [3] = assay: Inhibition of gluconeogenesis in Sprague-Dawley rat hepatocytes at 1 uM incubated for 1.5 hrs followed by sodium pyruvate and sodium lactate addition and measured after 4 hrs by colorimetric analysis relative to control; format: functional; conditions: time 5.5 hrs
Hepatocyte [4] = assay: Inhibition of gluconeogenesis in Sprague-Dawley rat hepatocytes at 3 uM incubated for 1.5 hrs followed by sodium pyruvate and sodium lactate addition and measured after 4 hrs by colorimetric analysis relative to control; format: functional; conditions: time 5.5 hrs
Mus musculus = assay: Inhibition of gluconeogenesis in CD-1 mouse assessed as decrease in blood glucose level at 50 mg/kg administered via gavage at 1 hr prior to pyruvate sodium challenge and measured for 2 hrs by pyruvate tolerance test; format: functional, organism-based; conditions: time 3.0 hrs

SMILES: C=CCc1ccc(OCc2ccc(C(=O)O)o2)cc1
- fold change (FC) (Hepatocyte [1]): 0.6

SMILES: CCCc1ccc(OCc2ccc(C(=O)O)o2)c(OCCn2cccc2)c1
- fold change (FC) (Hepatocyte [1]): 1.28

SMILES: Cc1cc(Br)ccc1OCc1ccc(C(=O)O)o1
- fold change (FC) (Hepatocyte [1]): 0.33
- fold change (FC) (Hepatocyte [2]): 0.93
- fold change (FC) (Hepatocyte [3]): 1.01
- fold change (FC) (Hepatocyte [4]): 0.37
- inhibition (Mus musculus): Active

SMILES: CCCc1ccc(OCc2ccc(C(=O)O)o2)c(OCC)c1
- fold change (FC) (Hepatocyte [1]): 0.77

SMILES: CCCc1ccc(OCc2ccc(C(=O)O)o2)c(NC)c1
- fold change (FC) (Hepatocyte [1]): 0.41
- fold change (FC) (Hepatocyte [2]): 1.02
- fold change (FC) (Hepatocyte [3]): 0.81
- fold change (FC) (Hepatocyte [4]): 0.56
- inhibition (Mus musculus): Active

SMILES: COc1cc(Cl)ccc1OCc1ccc(C(=O)O)o1
- fold change (FC) (Hepatocyte [1]): 0.33
- fold change (FC) (Hepatocyte [2]): 1.02
- fold change (FC) (Hepatocyte [3]): 0.78
- fold change (FC) (Hepatocyte [4]): 0.51
- inhibition (Mus musculus): Active

SMILES: CCCc1cccc(OC)c1OCc1ccc(C(=O)O)o1
- fold change (FC) (Hepatocyte [1]): 0.67

SMILES: COc1cc(CCC(=O)N(C)C)ccc1OCc1ccc(C(=O)O)o1
- fold change (FC) (Hepatocyte [1]): 0.9

SMILES: C=CCc1ccc(OCc2ccc(C(=O)O)s2)c(OC)c1
- fold change (FC) (Hepatocyte [1]): 1.05

SMILES: CCCOc1cc(CCC)ccc1OCc1ccc(C(=O)O)o1
- fold change (FC) (Hepatocyte [1]): 0.72

SMILES: C=CCc1ccc(OCc2ccc(C(=O)N3CCOCC3)o2)c(OC)c1
- fold change (FC) (Hepatocyte [1]): 0.97

SMILES: C=CCc1cccc(OC)c1OCc1ccc(C(=O)O)o1
- fold change (FC) (Hepatocyte [1]): 0.78

SMILES: CCCc1ccc(OCc2ccc(C(=O)O)o2)c(OCCOC)c1
- fold change (FC) (Hepatocyte [1]): 0.72

SMILES: C=CCc1ccc(OC)c(OCc2ccc(C(=O)O)o2)c1
- fold change (FC) (Hepatocyte [1]): 1

SMILES: CNC(=O)/C=C/c1ccc(OCc2ccc(C(=O)O)o2)c(OC)c1
- fold change (FC) (Hepatocyte [1]): 0.85

SMILES: C=CCc1ccc(OCc2cccc(C(=O)O)n2)c(OC)c1
- fold change (FC) (Hepatocyte [1]): 1.11

SMILES: C=CCc1ccc(OCc2ccc(C(=O)NCCO)o2)c(OC)c1
- fold change (FC) (Hepatocyte [1]): 0.82

SMILES: CCCc1ccc(OC)c(OCc2ccc(C(=O)O)o2)c1
- fold change (FC) (Hepatocyte [1]): 1.18
